In PubChem BioAssay (NCI):
Where “and” joins values, the source holds several entries; their conditions need not be identical. Equal entries are not always repeated.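 Briefly, cells in 96-well plates were exposed to five compound concentrations for 48 h, and endpoints were estimated by linear interpolation. GI50 = concentration required for 50% inhibition of growth. Definition used: TGI = concentration required for complete inhibition of growth.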

Legend:
Test in all cases: growth of human tumour cells (NCI), 48 h
[1] = tested on: NCI-H460 lung
[2] = tested on: UACC-62 melanoma
[3] = tested on: OVCAR-3 ovarian
[4] = tested on: HCT-15 colon
[5] = tested on: UACC-257 melanoma
[6] = tested on: RXF 393 renal
[7] = tested on: MDA-MB-435
[8] = tested on: SK-MEL-5 melanoma
[9] = tested on: M14 melanoma
[10] = tested on: HCC-2998 colon

Compound | TGI [1] | TGI [2] | TGI [3] | TGI [4] | TGI [5] | TGI [6] [µM] | TGI [7] [µM] | TGI [8] | TGI [9] | TGI [10] | GI50 [1] [µM] | GI50 [2] [µM] | GI50 [3] [µM] | GI50 [4] [µM] | GI50 [9] [µM] | GI50 [6] [µM] | GI50 [7] [µM] | GI50 [8] [µM] | GI50 [10] [µM] | GI50 [5] [µM]
COc1cc2c(c3c1c(=O)c1ccccc1n3C)C=C([N+](=O)[O-])C(C)(C)O2 | 0.108 µM | > 100 µM | > 100 µM | > 100 µM | > 48 µM | 0.328 | 0.577 | 0.0567 µM |  |  |  |  |  |  |  |  |  |  |  | 
Cc1ccc(-n2c3nc(=O)n(C)c(=O)c-3nc3ccccc32)c(C)c1 | 15.3 µM | 5.49 µM | 6.33 µM | 22.5 µM | 12.6 µM | 34.5 |  | 18.5 µM | 18.6 µM | 19 µM |  |  |  |  |  |  |  |  |  | 
CC(C)(C)OC(=O)N[C@H]1CC(=O)c2ccccc2N(CC(=O)O)C1=O | > 100 µM | > 100 µM | > 100 µM | > 100 µM | > 100 µM | > 100 |  | > 100 µM | > 100 µM | > 100 µM |  |  |  |  |  |  |  |  |  | 
Cc1ccccc1Nc1cc(O)c2c(=O)cc(-c3ccccc3)oc2c1 | > 100 µM | > 100 µM | 4.91 µM | > 100 µM |  | 9.56 | 1.93 |  | > 100 µM |  | 2.89 | 2.89 | 1.72 | 0.678 | 2.39 | 2.45 | 0.315 |  |  | 
O=C(Nc1ccccc1C(=O)NC(=O)c1ccccc1NC(=O)c1ccccc1)c1ccccc1 | 28.1 µM | 5.54 µM | 13.4 µM | 34.3 µM | 4.94 µM | 9.15 |  | 12.2 µM |  |  |  |  |  |  |  |  |  |  |  | 
COC(=O)[C@]12CC[C@@H](C)[C@H](C)[C@@H]1C1=CC[C@@H]3[C@@]4(C)C(C=O)=C[C@@](C)(COS(C)(=O)=O)C4=CC[C@@]3(C)[C@]1(C)CC2 | 0.534 µM | 0.551 µM | 0.359 µM |  |  | 0.358 | 0.364 | 0.333 µM | 0.486 µM | 0.466 µM | 0.226 | 0.2 | 0.183 |  | 0.213 | 0.17 | 0.177 | 0.175 | 0.204 | 
O=c1c2ccccc2nc(-c2cccc(Cl)c2)n1NC1OC(CO)C(O)C(O)C1O (stereo unspecified) | > 100 µM | > 100 µM | > 100 µM | > 100 µM | > 100 µM |  |  | > 100 µM | > 100 µM | > 100 µM |  |  |  |  |  |  |  |  |  | 
O=[N+]([O-])c1cccnc1S(=O)(=O)c1ccccc1 | 27.8 µM | 23.9 µM | 3.84 µM | 21.7 µM | 33.4 µM | 3.77 |  | 32.6 µM | 22.5 µM | 39.6 µM |  |  |  |  |  |  |  |  |  | 
CCOC(=O)c1cc(C(=O)c2ccc(OC)c(OC)c2)n2c1ccc1ccc3cccnc3c12 | > 100 µM | > 100 µM |  | > 100 µM | > 100 µM |  |  | 37.7 µM | > 100 µM | > 100 µM | 1.58 | 0.918 |  | 1.25 | 0.648 |  |  | 0.836 | 4.08 | 25
[O-][n+]1c2cccc(O)c2[n+]([O-])c2cccc(O)c21 | > 100 µM |  | > 100 µM | > 100 µM | > 100 µM | > 100 | > 100 | > 100 µM | > 100 µM |  |  |  |  |  |  |  |  |  |  | 
Oc1cn(-c2ccc(Cl)cc2)nc1-c1n[nH]c(=S)n1-c1ccc(F)cc1 | 40.8 µM | 28 µM | > 100 µM | > 100 µM | 77.4 µM | > 100 | > 100 | 35.9 µM | 45 µM |  | 11.9 | 12 | 22 | 11.3 | 15.1 | 28 | 4.93 | 14.3 |  | 24.2
COC(=O)C1CCC(C)CC1=O (stereo unspecified) | > 100 µM | > 100 µM | > 100 µM | > 100 µM | > 100 µM | > 100 |  | > 100 µM | > 100 µM | > 100 µM |  |  |  |  |  |  |  |  |  | 
C[n+]1cn(CC(=O)c2ccccc2)c(C(N)=O)c1N | > 100 µM | > 100 µM | > 100 µM | > 100 µM | > 100 µM |  |  | > 100 µM | > 100 µM | > 100 µM |  |  |  |  |  |  |  |  |  | 
CCCCCCCCCCCCCC(=O)O[C@H]1CC[C@H](NC(=O)[C@H](OC)[C@H](O)[C@@H](O)[C@H](O)/C=C/C(C)C)C(=O)N(C)C1 | 0.371 µM and 3.01 µM | 0.0655 µM and 0.00779 µM | 15 µM and > 23.8 µM | 15 µM and > 23.8 µM | 15 µM and 13 µM |  |  | 0.337 µM and 0.0726 µM | 1.75 µM and 0.413 µM | 0.63 µM and 4.25 µM | 0.00238 | 0.00238 | 0.0139 | 0.23 | 0.00238 | 0.00238 |  | 0.00347 | 0.00238 | 0.00238
CC(C)N(C(=O)C12C3C4C1C1C4(C#N)C3C12C(=O)O)C(C)C (stereo unspecified) | > 100 µM | > 100 µM | > 100 µM | > 68.2 µM | > 100 µM |  |  | > 100 µM | > 100 µM | > 100 µM |  |  |  |  |  |  |  |  |  | 
COc1ccc(/C=C/C(=O)c2c(-c3ccccc3)nn(C)c(=O)c2N2CCCCC2)cc1 | 49.4 µM | 44.8 µM |  | > 100 µM |  | 28 |  | 29.1 µM | 66 µM |  |  |  |  |  |  |  |  |  |  | 
N#Cc1c(-c2ccccc2)c(-c2ccccc2)cc2c(=O)c3ccc(Cl)cc3[nH]c12 | > 100 µM | > 100 µM | > 100 µM | > 100 µM | > 100 µM | > 100 |  |  |  | > 100 µM |  |  |  |  |  |  |  |  |  | 
OC1=CN=C(c2ccccc2)Oc2ccccc21 | > 100 µM | > 100 µM | > 100 µM | > 100 µM | > 100 µM | > 100 |  | > 100 µM | > 100 µM | > 100 µM |  |  |  |  |  |  |  |  |  | 
O=C1C2C(C(=O)N1Cc1ccccc1)N(Cc1ccccc1)C(=O)N2Cc1ccccc1 (stereo unspecified) | > 100 µM | > 100 µM | > 100 µM | > 100 µM | > 100 µM | > 100 |  | > 100 µM | > 100 µM | > 100 µM |  |  |  |  |  |  |  |  |  | 
O=C1OC(=O)c2c1nc1ccccc1c2-c1ccccc1 | > 100 µM | > 100 µM |  | > 100 µM | > 100 µM | > 100 |  | > 100 µM | > 100 µM | > 100 µM |  |  |  |  |  |  |  |  |  | 
